Drawing on PubChem BioAssay AID743072 (Broad Institute, 2013), this text covers IC50 and IC90 for 60 compounds.

Active and inactive are the calls of the source. The rule behind the calls is not given here. Where only a bound is given, the exact number is not on record here.

The test concerns M. tuberculosis BioA-TetON underexpression strain, growth inhibition. Briefly: antitubercular activity, BioA-TetON-5 strain, plate reader, dry powder (AID 743072). The conditions noted are these: for IC90: measured here: 90% growth inhibition.

The IC50 is the point on the concentration scale where inhibition reaches its midpoint. The IC90 is the point of the concentration-response curve where the effect stands at 90%. Read a low IC90 as greater potency.

For the compound `Cc1ccc(/C=C(\CC(=O)O)c2nc3ccccc3s2)cc1[N+](=O)[O-]`, the IC50 was 2.9 µM and the concentration for an effect of 90% (IC90) amounted to 17.2 µM.

For `O=C(Nc1cccc(Cl)c1)N1CCN(c2ccccc2)CC1`, the IC50 is 4.9 µM and the 90% effect concentration (IC90) is > 50 µM.

Regarding `Cc1nc2ccc(NC(=O)N3CCN(c4ccccc4)CC3)cc2s1`, the IC50 was 1.3 µM and the IC90 worked out at 3.8 µM.

In the case of `CC(=O)c1ccc(N2CCN(C(=O)c3ccc4c(c3)OCO4)CC2)cc1`, the half-maximal inhibitory concentration (IC50) is 1.3 µM and the IC90 amounted to 9.3 µM.

As for `CCN(CC)c1ccc2cc(C(=O)c3cccs3)c(=O)oc2c1`, the concentration for half-maximal inhibition (IC50) is 1.1 µM and the 90% effect concentration (IC90) is 5.6 µM.

In the case of `COc1cccc(NC(=O)CCC2CCN(C(=O)c3ccc(C(C)=O)s3)CC2)c1`, the IC50 was 4.4 µM and the 90% effect concentration (IC90) is > 50 µM.

`O=C(O)CC/C(=C\c1ccc([N+](=O)[O-])cc1)c1nc2ccccc2s1`: the IC50 is 1.3 µM and the 90% effect concentration (IC90) worked out at 7.9 µM.

Turning to `CC(=O)c1ccc(N2CCN(Cc3ccc4c(c3)OCO4)CC2)cc1`, the half-inhibitory concentration (IC50) was 25.2 µM and the IC90 was > 50 µM.

With `O=C(Nc1ccc2snnc2c1)N1CCCCC1`, the IC50 was 22 µM and the IC90 is > 50 µM.

`O=C(Nc1ccccc1)N1CCN(c2ccccc2)CC1`: the 50% inhibitory concentration (IC50) was 3.2 µM and the IC90 was found to be 48.2 µM.

`CCOC(=O)N1CCN(C(=O)Nc2ccc3snnc3c2)CC1`: the IC50 was 3.8 µM and the IC90 came out at 29.6 µM.

With `O=C(COc1ccc2ccc(=O)oc2c1)N1CCN(c2ccc(F)cc2)CC1`, the IC50 was 10.2 µM and the IC90 stood at 42.7 µM.

Consider `Cc1nc2cc(NC(=O)N3CCN(c4ccccc4)CC3)ccc2o1`, for which the IC50 is 36 µM and the IC90 is > 50 µM.

For the compound `COc1cccc(C(=O)N2CCN(c3ccc(C(C)=O)cc3)CC2)c1`, the IC50 is 41.5 µM and the IC90 is > 50 µM.

On to `O=C(Nc1cccnc1)c1cc2nc(-c3cccs3)cc(C(F)(F)F)n2n1`, for which the IC50 was > 50 µM (inactive) and the IC90 was > 50 µM.

`Cc1ccccc1/C=C(\CCC(=O)O)c1nc2ccccc2s1`: the IC50 was 4.7 µM and the 90% effect concentration (IC90) stood at 25.3 µM.

Regarding `O=C(c1ccc2c(c1)OCO2)N1CCN(c2ccccc2)CC1`, the IC50 was 20.9 µM and the 90% effect concentration (IC90) is > 50 µM.

Consider `Cc1cc(C)n2nc(C(=O)Nc3cccnc3)cc2n1`, for which the IC50 is 4.2 µM and the 90% effect concentration (IC90) was > 50 µM.

In the case of `O=C(Nc1cccc(F)c1)N1CCN(c2ccccc2)CC1`, the concentration for half-maximal inhibition (IC50) is 4.6 µM and the IC90 came to 32.9 µM.

Take `CC(C)(C)c1ccc(C(=O)N2CCN(c3ccc4c(c3)OCO4)CC2)cc1`: the concentration for half-maximal inhibition (IC50) is 10.7 µM and the 90% effect concentration (IC90) was 29.5 µM.

`CC(=O)c1ccc(N2CCN(C(=O)c3ccccc3)CC2)cc1`: the IC50 is > 50 µM (inactive) and the IC90 was > 50 µM.

Regarding `CC(=O)c1ccc(N2CCN(C(=O)c3ccc4c(c3)OCCO4)CC2)cc1`, the IC50 was > 50 µM (inactive) and the IC90 was > 50 µM.

For the compound `CC(=O)c1ccc(N2CCN(C(=O)c3ccc4ncsc4c3)CC2)cc1`, the IC50 was 12.9 µM and the IC90 was > 50 µM.

Turning to `O=C(O)CC/C(=C\c1ccccc1[N+](=O)[O-])c1nc2ccccc2s1`, the IC50 was 50 µM and the IC90 was > 50 µM.

Take `O=C(Nc1ccc2[nH]ccc2c1)N1CCN(c2ccccc2)CC1`: the IC50 was 11.7 µM and the IC90 is > 50 µM.

As to `O=C(Nc1cccnc1)N1CCN(c2ccccc2)CC1`, the IC50 is > 50 µM (inactive) and the 90% effect concentration (IC90) is > 50 µM.

As for `Cc1ccc(NC(=O)N2CCN(c3ccccc3)CC2)cc1`, the IC50 was 10.6 µM and the IC90 was > 50 µM.

On to `O=C(c1ccc2c(c1)OCO2)N1CCN(c2ccc(F)cc2)CC1`, for which the IC50 is 10.6 µM and the 90% effect concentration (IC90) is > 50 µM.

`COc1cc(/C=C/C(=O)Nc2cccnc2)cc(OC)c1OC`: the 50% inhibitory concentration (IC50) is 1.3 µM and the IC90 amounted to 15.3 µM.

On to `Cc1cc(C)n2nc(C(=O)Nc3cccnc3)nc2n1`, for which the half-maximal inhibitory concentration (IC50) was 50 µM and the 90% effect concentration (IC90) is > 50 µM.

As to `COc1cccc(NC(=O)N2CCN(c3ccccc3)CC2)c1`, the IC50 was 36.4 µM and the concentration for an effect of 90% (IC90) was > 50 µM.

On to `Cc1ccc(-c2cc(C(F)(F)F)n3nc(C(=O)Nc4cccnc4)cc3n2)cc1`, for which the IC50 was > 50 µM (inactive) and the IC90 is > 50 µM.

In the case of `COc1ccc(C(=O)N2CCN(c3ccc(C(C)=O)cc3)CC2)cc1`, the IC50 is 38.5 µM and the IC90 was > 50 µM.

Consider `Cc1ccc(/C=C(\CCC(=O)O)c2nc3ccccc3s2)cc1`, for which the 50% inhibitory concentration (IC50) was 1 µM and the IC90 turned out to be 2.8 µM.

For `O=C(c1ccc2c(c1)OCO2)N1CCN(Cc2ccccc2)CC1`, the IC50 is > 50 µM (inactive) and the concentration for an effect of 90% (IC90) was > 50 µM.

With `CC(=O)c1ccc(N2CCN(C(=O)c3ccc(F)cc3)CC2)cc1`, the concentration for half-maximal inhibition (IC50) is 44.7 µM and the IC90 is > 50 µM.

As to `CCc1ccc(C(=O)N2CCN(Cc3ccc4c(c3)OCO4)CC2)cc1`, the IC50 is 5.2 µM and the IC90 was > 50 µM.

As to `O=C(Nc1ccc2snnc2c1)N1CCOCC1`, the IC50 was > 50 µM (inactive) and the IC90 is > 50 µM.

Turning to `CC(=O)c1ccc(N2CCN(C(=O)c3ccc(Cl)cc3)CC2)cc1`, the half-maximal inhibitory concentration (IC50) was 27.9 µM and the IC90 was > 50 µM.

Turning to `O=C(Nc1ccncc1)c1cc2nc(C3CC3)cc(C(F)F)n2n1`, the concentration for half-maximal inhibition (IC50) was 50 µM and the IC90 was > 50 µM.

For the compound `CC(=O)c1ccc(N2CCN(C(=O)c3ccc(C)cc3)CC2)cc1`, the half-maximal inhibitory concentration (IC50) was 31.4 µM and the 90% effect concentration (IC90) is > 50 µM.

In the case of `CC(=O)c1ccc(N2CCN(C(=O)c3cccc(Cl)c3)CC2)cc1`, the half-maximal inhibitory concentration (IC50) was 2.2 µM and the IC90 is 16.5 µM.

As to `COc1ccc(-c2cc(C(F)(F)F)n3nc(C(=O)Nc4cccnc4)cc3n2)cc1`, the IC50 is 0.3 µM and the concentration for an effect of 90% (IC90) amounted to 0.9 µM.

In the case of `O=C(Nc1ccc(Cl)c(-c2nc3ccccc3[nH]2)c1)c1cccnc1`, the IC50 is 1.9 µM and the IC90 was determined as 14.5 µM.

Turning to `Cc1ccc(/C=C(\CCC(=O)O)c2nc3ccccc3s2)cc1[N+](=O)[O-]`, the IC50 is 0.3 µM and the 90% effect concentration (IC90) was found to be 0.7 µM.

As to `Cc1ccc(/C=C(\CCCC(=O)O)c2nc3ccccc3s2)cc1[N+](=O)[O-]`, the concentration for half-maximal inhibition (IC50) was 6.1 µM and the concentration for an effect of 90% (IC90) is 46.2 µM.

Turning to `CC(=O)c1ccc(N2CCN(C(=O)c3cccc(F)c3)CC2)cc1`, the IC50 was > 50 µM (inactive) and the IC90 is > 50 µM.

In the case of `O=C(Nc1ccc(Cl)cc1)c1cc2nc(C3CC3)cc(C(F)(F)F)n2n1`, the IC50 is 50 µM and the IC90 was > 50 µM.

With `CC(=O)c1ccc(N2CCN(C(=O)c3ccc(Br)cc3)CC2)c(F)c1`, the concentration for half-maximal inhibition (IC50) was 4.9 µM and the IC90 is > 50 µM.

Consider `COc1ccc(NC(=O)N2CCN(c3ccccc3)CC2)cc1`, for which the concentration for half-maximal inhibition (IC50) was 48 µM and the IC90 was > 50 µM.

Turning to `COc1ccc(N2CCN(C(=O)c3ccc4c(c3)OCO4)CC2)cc1`, the 50% inhibitory concentration (IC50) is 17.6 µM and the IC90 was > 50 µM.

As to `CC(=O)c1ccc(N2CCN(C(=O)c3cccnc3)CC2)cc1`, the IC50 is > 50 µM (inactive) and the IC90 was > 50 µM.

For the compound `O=C(c1ccc2c(c1)OCO2)N1CCN(c2ccc(Cl)cc2)CC1`, the half-inhibitory concentration (IC50) was 11.3 µM and the concentration for an effect of 90% (IC90) was 44.5 µM.

With `COC(=O)c1c(C(=O)OC)c(-c2cccc(F)c2)n2c1CS(=O)C2` (stereo not given), the IC50 is 1.7 µM and the 90% effect concentration (IC90) amounted to 34.9 µM.

`CCc1ccc(N2CCN(C(=O)c3ccc4c(c3)OCO4)CC2)cc1`: the 50% inhibitory concentration (IC50) is 6.3 µM and the IC90 was > 50 µM.

Turning to `O=C(Nc1ccc2snnc2c1)N1CCN(c2ccccc2)CC1`, the IC50 was 0.9 µM and the IC90 came out at 8.3 µM.

As for `Cc1cccc(/C=C(\CCC(=O)O)c2nc3ccccc3s2)c1`, the half-maximal inhibitory concentration (IC50) was 1.8 µM and the IC90 is 9 µM.

Consider `O=C(Nc1cccnc1)c1cnn2c(C(F)F)cc(C3CC3)nc12`, for which the concentration for half-maximal inhibition (IC50) is 3.3 µM and the IC90 was > 50 µM.

As to `O=C(Nc1cccnc1)c1cnn2c(C(F)(F)F)cc(-c3ccccc3)nc12`, the IC50 is > 50 µM (inactive) and the 90% effect concentration (IC90) is > 50 µM.

On to `O=C(Nc1ccc(F)cc1)N1CCN(c2ccccc2)CC1`, for which the IC50 is 5.1 µM and the concentration for an effect of 90% (IC90) is > 50 µM.
